# Data published in US20070161107A1, “Differentiation of human embryonic stem cells to cardiomyocytes” (priority 2003, published 2007).
# What was measured:
# [1] = test system: hES derived cardiomyocytes; experiment: Chronotropic response (beating rate) of dissociated hES-derived cardiomyocytes; format: cell-based, human; details: cultured dissociated hES cardiomyocytes
# Excerpt: (§1) FIG. 4. Action potentials and chronotropic responses. […] C.
# Co-cultures were initiated as for END-2 cells.
# (§2) Ventricular-like action potentials predominated (28 out of 33; table 2) but atrial-like (n=2), pacemaker-like (n=1) and vascular smooth muscle like-cells (n=2) were also found. In areas in which the cells were not beating but had adopted morphologies indistinguishable from beating areas (FIG. 1F), current injection was sufficient to induce repeated action potentials and sustained synchronous rhythmic contractions. Transcripts for MLC-2v were also detected by RTPCR in non-beating, myocyte-like areas (not shown); scoring beating muscle may thus underestimate the number of cardiomyocytes present in culture. […] The effects of phenylephrine, isoprenaline and carbachol on cultured dissociated hES cardiomyocytes were tested and compared to cultured human fetal ventricular cells (FIG. 4B). […] Similar effects were reported in mES derived cardiomyocytes 21 and mouse fetal cells (22).
# [2] = test system: human fetal ventricular cells; experiment: Chronotropic response (beating rate) of cultured human fetal ventricular cells; format: cell-based
# Excerpt: as §1, §2
SMILES,effect on beating rate [1],effect on beating rate [2]
C[N+](C)(C)CCOC(N)=O [Carbachol],decreased the beating rate,decreased the beating rate
CC(C)NCC(O)c1ccc(O)c(O)c1 (stereo not drawn) [isoprenaline],increase,increase
CNC[C@H](O)c1cccc(O)c1 [phenylephrine],increase,increase
